Source: patent US4526892A, “Dimethylaminoalkyl-3-(ergoline-8'βcarbonyl)-ureas” (Farmitalia Carlo Erba, S.p.A., priority 1982, dated 1985)
Where two headings read alike, the source gives them in different places.

Columns and labels:
[1] = system: prolactin secretion; test: Anti-prolactin activity: egg-nidation inhibition in rats; type: in vivo, rat (Sprague Dawley); details: Rattus norvegicus, po, 120 h, read-out: Nidation inhibition in rats ED50
Text: The prolactin secretion inhibitory action of the compounds has been indirectly evaluated by determining the egg-nidation inhibitory action in rats. For the ergoline derivatives this activity is considered to be correlated with the anti-prolactin activity (E. FLUCKIGER and E. DEL POZO,Handb. exp. Pharmac. 49, 615, 1978), since prolactin is the only hypophysial hormone involved in the maintenance of the first part of pregnancy in rats (W. K. MORISHIGE and I. ROTHCHILD, Endocrinology 95, 260, 1974).
Pregnant Sprague Dawley rats weighing 200-250 g were used. The compounds to be tested, dissolved in diluted mineral acids, were administered orally to groups from six to eight rats on day 5 of pregnancy. The animals were sacrificed on day 14 and the uteri were examined. The absence of implantation sites was taken as the criterion of anti-prolactin activity. Several doses were tested for the ED50 evaluation. As reference standard Bromocriptine was used.

[2] = Emetic activity in dogs; details: dog, in vivo, po, observed for 6 hours; read-out: Emetic activity in dogs ED50
Text: The emetic activity of the compounds was investigated by oral administration to male beagle dogs weighing 15-20 kg. […] Four to six animals per dose were employed for the ED50 evaluation. […] The emetic activity of the compounds is similar or lower than that of Bromocriptine. The ratio between activity and tolerance of the new ergoline derivatives accordingly is very high.

[3] = system: spontaneously hypertensive male rats, strain SHR; test: Anti-hypertensive activity: change in blood pressure (BP) in SHR rats; type: in vivo, rat; details: for Hypotensive activity vs Hydralazine: compound 25 mg/kg vs Hydralazine 5 mg/kg; for Tolerance on the 4th day: compound 25 mg/kg, unlike Hydralazine
Protocol: (§1) Four spontaneously hypertensive male rats, strain SHR, weighing 250-300 g for each group were used. The animals were treated once a day for four consecutive days. Drugs were administered by gastric gavage, suspended in 5% gum arabic (0.2 ml/100 g body weight) and blood pressure (BP) and heart rate (HR) were measured by indirected tail/cuff method (BP Recorder W+W). Blood pressure and heart rate were measured on the first and fourth days of treatment 1 hour before and 1 and 5 hours after drug administration. Hydralazine and α-methyl-Dopa were used as reference drugs.

[4] = system: mice; test: Acute toxicity: orientative toxicity in mice; type: in vivo, mouse; details: per os, observed for seven days
Text: The male mice for each group were orally treated with drugs at different dose levels for the determination of orientative toxicity.

[5] = system: spontaneously hypertensive male rats, strain SHR; test: Change in heart rate (HR) in SHR rats; type: in vivo, rat
Protocol: as §1

[6] = system: mice; details: per os, data of LD50 from the literature; cited from earlier work
[7] = 5 mg/kg os, 1st day, 1 hour after dosing
[8] = 5 mg/kg os, 1st day, 5 hours after dosing
[9] = 5 mg/kg os, 4th day, 1 hour after dosing
[10] = 5 mg/kg os, 4th day, 5 hours after dosing
[11] = 25 mg/kg os, 1st day, 1 hour after dosing
[12] = 25 mg/kg os, 1st day, 5 hours after dosing
[13] = 25 mg/kg os, 4th day, 1 hour after dosing
[14] = 25 mg/kg os, 4th day, 5 hours after dosing
[15] = 30 mg/kg os, 1st day, 1 hour after dosing
[16] = 30 mg/kg os, 1st day, 5 hours after dosing
[17] = 30 mg/kg os, 4th day, 1 hour after dosing
[18] = 30 mg/kg os, 4th day, 5 hours after dosing
[19] = 100 mg/kg os, 1st day, 1 hour after dosing
[20] = 100 mg/kg os, 1st day, 5 hours after dosing
[21] = 100 mg/kg os, 4th day, 1 hour after dosing
[22] = 100 mg/kg os, 4th day, 5 hours after dosing

## CC(C)C[C@H]1C(=O)N2CCC[C@H]2[C@]2(O)O[C@](NC(=O)[C@@H]3C=C4c5cccc6[nH]c(Br)c(c56)C[C@H]4N(C)C3)(C(C)C)C(=O)N12 [2-bromo-α-ergocryptine, reference compound]
[1]
  ED50: 5.7 mg/kg
[2]
  TD50 at 6 h: 0.01 to 0.02 mg/kg

## CCCN1C[C@H](C(=O)N(C(=O)NC(C)C)C(C)C)C[C@@H]2c3cccc4[nH]cc(c34)C[C@H]21 [Example 5, 1,3-diisopropyl-3-(6'-n-propylergoline-8'β-carbonyl)-urea]
[1]; p.o., day 5 of pregnancy
  ED50: 0.02 mg/kg
[2]
  TD50 at 6 h: 0.01 mg/kg

## CN1C[C@H](C(=O)N(C(=O)NC2CCCCC2)C2CCCCC2)C[C@@H]2c3cccc4[nH]cc(c34)C[C@H]21 [Example 7, 1,3-dicyclohexyl-3-(6'-methylergoline-8'β-carbonyl)urea]
[3]; 5 mg/kg
  Effect on BP (in words): the antihypertensive effect was less remarkable
[3]; [7]
  Change in BP: -12 mmHg
[3]; [8]
  Change in BP: -10 mmHg
[3]; [9]
  Change in BP: -15 mmHg
[3]; [10]
  Change in BP: -7 mmHg
[3]; [11]
  Change in BP: -30 mmHg
[3]; [12]
  Change in BP: -57 mmHg
[3]; [13]
  Change in BP: -30 mmHg
[3]; [14]
  Change in BP: -10 mmHg
[3]; 25 mg/kg, 1st and 4th days
  Effect on BP (in words): significant decrease BP
[3]
  Hypotensive activity vs Hydralazine: comparable to that of Hydralazine
  Tolerance on the 4th day: no tolerance on the 4th day
[4]
  Orientative toxicity in mice: > 800 mg/kg
[5]; [7]
  Change in HR: 0 beats/minute
[5]; [8]
  Change in HR: -10 beats/minute
[5]; [9]
  Change in HR: 0 beats/minute
[5]; [10]
  Change in HR: 0 beats/minute
[5]; [11]
  Change in HR: +5 beats/minute
[5]; [12]
  Change in HR: -20 beats/minute
[5]; [13]
  Change in HR: -17 beats/minute
[5]; [14]
  Change in HR: -2 beats/minute

## CO[C@]12C[C@@H](C(=O)N(C(=O)NC3CCCCC3)C3CCCCC3)CN(C)[C@@H]1Cc1c[nH]c3cccc2c13 [Example 9, 1,3-dicyclohexyl-3-(10'α-methoxy-6'-methylergoline-8'β-carbonyl)-urea]
[3]; [11]
  Change in BP: -30 mmHg
[3]; [12]
  Change in BP: -37 mmHg
[3]; [13]
  Change in BP: -5 mmHg
[3]; [14]
  Change in BP: -23 mmHg
[3]; 25 mg/kg, 1st day
  Effect on BP (in words): marked decrease of BP
[3]; 25 mg/kg, 4th day, first hour after dosing
  Effect on BP (in words): the hypotensive effect was still observed on the fourth day even if less remarkable
[3]
  Hypotensive activity vs Hydralazine: comparable to that of Hydralazine
  Tolerance on the 4th day: no tolerance on the 4th day
[4]
  Orientative toxicity in mice: > 800 mg/kg
[5]; [11]
  Change in HR: -20 beats/minute
[5]; [12]
  Change in HR: -10 beats/minute
[5]; [13]
  Change in HR: 0 beats/minute
[5]; [14]
  Change in HR: -20 beats/minute

## CO[C@]12C[C@@H](C(=O)N(C(=O)NC3CCCCC3)C3CCCCC3)CN(C)[C@@H]1Cc1cn(C)c3cccc2c13 [Example 10, 1,3-dicyclohexyl-3-(10'α-methoxy-1',6'-dimethylergoline-8'β-carbonyl)-urea]
[3]; [7]
  Change in BP: -11 mmHg
[3]; [8]
  Change in BP: -22 mmHg
[3]; [9]
  Change in BP: -15 mmHg
[3]; [10]
  Change in BP: -16 mmHg
[3]; [11]
  Change in BP: -26 mmHg
[3]; [12]
  Change in BP: -41 mmHg
[3]; [13]
  Change in BP: -51 mmHg
[3]; [14]
  Change in BP: -40 mmHg
[3]
  Hypotensive activity vs Hydralazine: comparable to that of Hydralazine
  Tolerance on the 4th day: no tolerance on the 4th day
[3]; os, all tested doses of the compound
  Effect on BP (in words): a decrease of BP was observed; this effect was long lasting
[4]
  Orientative toxicity in mice: > 800 mg/kg
[5]; [7]
  Change in HR: -5 beats/minute
[5]; [8]
  Change in HR: -20 beats/minute
[5]; [9]
  Change in HR: -20 beats/minute
[5]; [10]
  Change in HR: +15 beats/minute
[5]; [11]
  Change in HR: -2 beats/minute
[5]; [12]
  Change in HR: -12 beats/minute
[5]; [13]
  Change in HR: -17 beats/minute
[5]; [14]
  Change in HR: -20 beats/minute

## CCNC(=O)N(CCCN(C)C)C(=O)[C@@H]1C[C@@H]2c3cccc4[nH]cc(c34)C[C@H]2N(C)C1 [Example 13, 1-ethyl-3-(3'-dimethylaminopropyl)-3(6'-methylergoline-8'β-carbonyl)-urea]
[1]
  ED50: 0.3 mg/kg
[2]
  TD50 at 6 h: 0.01 mg/kg

## C=CCN1C[C@H](C(=O)N(C(=O)NC2CCCCC2)C2CCCCC2)C[C@@H]2c3cccc4[nH]cc(c34)C[C@H]21 [Example 15, 1,3-dicyclohexyl-3-(6'-allylergoline-8'β-carbonyl)-urea]
[3]; [11]
  Change in BP: -35 mmHg
[3]; [12]
  Change in BP: -27 mmHg
[3]; [13]
  Change in BP: -47 mmHg
[3]; [14]
  Change in BP: -38 mmHg
[3]; 25 mg/kg, 1st and 4th days
  Effect on BP (in words): decrease in BP both on the 1st and 4th days of treatment but more pronounced on the 4th day
[3]; 4th day
  Hypotensive activity vs Hydralazine: much more remarkable
[3]; first day
  Hypotensive activity vs Hydralazine: comparable to that of Hydralazine
[4]
  Orientative toxicity in mice: > 800 mg/kg
[5]; [11]
  Change in HR: -20 beats/minute
[5]; [12]
  Change in HR: -20 beats/minute
[5]; [13]
  Change in HR: -27 beats/minute
[5]; [14]
  Change in HR: -10 beats/minute

## C=CCN1C[C@H](C(=O)N(CCCN(C)C)C(=O)NCC)C[C@@H]2c3cccc4[nH]cc(c34)C[C@H]21 [Example 19, 1-ethyl-3-(3'-dimethylaminopropyl)-3-(6'-allylergoline-8'βcarbonyl)-urea]
[1]; p.o., day 5 of pregnancy
  ED50: 0.03 mg/kg
[2]
  TD50 at 6 h: 0.02 mg/kg

## CCCN1C[C@H](C(=O)N(CCCN(C)C)C(=O)NCC)C[C@@H]2c3cccc4[nH]cc(c34)C[C@H]21 [Example 21, 1-ethyl-3-(3'-dimethylaminopropyl)-3-(6'-n-propylergoline-8'β-carbonyl)-urea]
[1]; p.o., day 5 of pregnancy
  ED50: 0.02 mg/kg
[2]
  TD50 at 6 h: 0.02 to 0.04 mg/kg

## C[C@](N)(Cc1ccc(O)c(O)c1)C(=O)O [α-methyl-Dopa, reference compound]
[3]; [15]
  Change in BP: -10 mmHg
[3]; [16]
  Change in BP: -20 mmHg
[3]; [17]
  Change in BP: -10 mmHg
[3]; [18]
  Change in BP: 0 mmHg
[3]; [19]
  Change in BP: -10 mmHg
[3]; [20]
  Change in BP: -25 mmHg
[3]; [21]
  Change in BP: -20 mmHg
[3]; [22]
  Change in BP: -25 mmHg
[5]; [15]
  Change in HR: +35 beats/minute
[5]; [16]
  Change in HR: +40 beats/minute
[5]; [17]
  Change in HR: +45 beats/minute
[5]; [18]
  Change in HR: +30 beats/minute
[5]; [19]
  Change in HR: +70 beats/minute
[5]; [20]
  Change in HR: +40 beats/minute
[5]; [21]
  Change in HR: +50 beats/minute
[5]; [22]
  Change in HR: +10 beats/minute
[5]; SHR rats, os
  Effect on HR (in words): increase of HR
[6]
  LD50 (orientative toxicity column): 5300 mg/kg
